Laboratory results taken from paper PMC10714399, “Open Source Antibiotics: Simple Diarylimidazoles Are Potent against Methicillin-Resistant Staphylococcus aureus” (ACS Infectious Diseases, 2023).

Molecular target: T1, kinases of HEK293 cell lysate (TGFBR1) (Homo sapiens, UniProt P36897)
T1 construct: endogenous in cells; host or cells: HEK293 cell lysate
Experiment: MIB-MS kinase competition assay in HEK293 cell lysate
Format: binding
Conditions: 1 μM
Procedure: To understand the mammalian toxicity of these diarylimidazole derivatives and to aid in future compound design, we experimentally investigated the potential series’ mechanism of action (MoA). […] This affinity composition assay has proven to be a useful approach to validate kinase inhibitor selectivity. […] Whether the inhibition of TGF-β1 contributes to the cytotoxicity observed remains to be determined.
Following a brief incubation with these compounds, lysates were passed over MIBs (see Supporting Information - Biology), and the captured kinases were identified and quantified by mass spectrometry. Displaced kinases are shown to the left of the center line at the designated doses.
Differential abundance (increase or decrease in MIB binding) was determined for kinases identified. The mass spectrometry proteomics data have been deposited to the ProteomeXchange Consortium via the PRIDE[43] partner repository with the dataset identifier PXD040208.
EphB2 TRKB FGFR1 FGFR4 EphB2 TRKB FGFR1 FGFR4
EphA5 EphB1 ROR2 FLT1 FmS/CSFR EphA5 EphB1 ROR2 FLT1 FmS/CSFR
MUSK ROR1Ret Kit MUSK ROR1Ret Kit
EphB3 DDR2 Mer EphB3 DDR2 Mer
EphA3EphA4 DDR1 Axl Tyro/SkyFLT4 PDGFRα EphA3EphA4 DDR1 AxlTyro/SkyFLT4 PDGFRα
IRR FLT3PDGFRβ IRR FLT3PDGFRβ
EphA6 IGF1R HER2 EphA6 IGF1R HER2
Yes InSR Met EGFR Yes InSR Met EGFR
Branch Color Src EphB4 Ron MLK3 Branch Color Src EphB4 Ron MLK3
Lyn EphA7 ALK TIE2 Lyn EphA7 ALK TIE2 […]

T1 sequence (P36897 34-503): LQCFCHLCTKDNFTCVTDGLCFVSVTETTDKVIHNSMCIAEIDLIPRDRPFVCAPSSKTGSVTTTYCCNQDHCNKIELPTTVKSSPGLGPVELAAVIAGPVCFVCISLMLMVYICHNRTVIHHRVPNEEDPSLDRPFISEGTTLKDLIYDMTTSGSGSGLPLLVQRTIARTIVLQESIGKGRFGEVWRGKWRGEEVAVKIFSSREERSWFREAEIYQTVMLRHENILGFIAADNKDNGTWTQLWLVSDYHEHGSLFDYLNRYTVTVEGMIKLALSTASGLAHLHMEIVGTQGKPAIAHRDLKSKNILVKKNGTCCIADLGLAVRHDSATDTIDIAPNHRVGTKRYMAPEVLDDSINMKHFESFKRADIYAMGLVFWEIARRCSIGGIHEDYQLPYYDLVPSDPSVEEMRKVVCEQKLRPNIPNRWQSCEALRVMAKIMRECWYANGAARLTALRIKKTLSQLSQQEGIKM

## c1ccc(-c2nc3n(c2-c2ccc4sccc4c2)CCC3)nc1 [compound 822]
  competition of kinases (TGFBR1) off MIBs: selectively competed off MIBs
